Source: patent publication US7601512B2, “Methods for identifying inhibitors of the 20S and 26S proteasome” (Bayer CropScience AG, priority 2002, dated 2009)
Values after ≈ are worked out from the molar mass of the structure shown. *1 amine or outer side, *2 acyl side, *3 side chain or, on linkers, in order; H or OH if unused. Where a SMILES comes first, the peptide text is derived from it. [ ]: non-standard residue; d: D form. The star is where a group is joined. AMC = Cc1cc(=O)oc2cc(N*)ccc12; Suc = O=C(CCC(=O)[*:2])[*:1]; Nva = CCC[C@H](N)C(=O)O; Cbz = O=C(OCc1ccccc1)*

How the values were obtained:
[1] = test system: Ustilago maydis (USTIMA); assay: agar diffusion assay (fungicidal action, MIC); type: cell-based
[2] = test system: Fusarium culmorum (FUSACU); assay: agar diffusion assay (fungicidal action, MIC); type: cell-based
[3] = test system: Pseudocercosporella herpotrichoides (PSDCHW); assay: agar diffusion assay (fungicidal action, MIC); type: cell-based; conditions: PSDCHR
[4] = test system: Rhizoctonia solani (RHIZSO); assay: agar diffusion assay (fungicidal action, MIC); type: cell-based
[5] = test system: Pyricularia orycae (PYRIOR); assay: microbe, parasite or virus in culture; type: cell-based
[6] = test system: Botrytis cinerea (BOTRCI); assay: agar diffusion assay (fungicidal action, MIC); type: cell-based
[7] = test system: S. cerevisiae; conditions: 30° C., Lee and Goldberg (1998); cited from earlier work
[8] = test system: 20S proteasome; assay: 20S proteasome activity/inhibition assay with Suc-LLVY-AMC (AMC fluorescence); type: biochemical, yeast; Ustilago maydis; conditions: 40 nM MG-132, FIGS. 1 and 2
Method: FIG. 1 is an activity assay for the 20S proteasome from yeast. The substrate used for the chymotryptic activity was Suc-LLVY-AMC (SEQ. ID. NO. 1). Liberation of AMC was determined fluorometrically as a function of time. The proteasome activity was determined in a 1:100 dilution of a yeast extract in the presence of 40 nM MG132 and in the absence of MG-132. As a negative control, the reaction was carried out without enzyme (buffer).
FIG. 2 is an activity assay for the 20S proteasome from Ustilago maydis. The substrate used for the chymotryptic activity was Suc-LLVY-AMC (SEQ. ID. NO. 1). Liberation of AMC was determined fluorometrically as a function of time. The proteasome activity was determined in a 1:100 and 1:20 dilution of a U. maydis preparation. […]
The proteolytic activity measurable in this way can be influenced by an inhibitor such as, for example, MG-132, resulting in a lower relative fluorescence being observed (FIGS. 1 and 2). […]
The activity and inhibition assay which makes use of the known inhibitor MG-132 from Calbiochem and which is intended to check the usability of the method of the invention was carried out in 384-well MTPs (microtitre plates with 384 wells). […] The preliminary measurement (fluorescence) was carried out at 360/465 nm (35 nm bandwidth). […] The fluorescence was measured again at 360/465 nm (35 nm bandwidth).

[9] = cited from earlier work
[10] = test system: 20S proteasome; conditions: read-out: KM for Suc-LLVY-AMC; approx. 70 ng proteasomes per reaction, Lineweaver-Burke
Method: A constant amount of proteasomes (approx. 70 ng per reaction) was incubated with increasing amounts of substrate and the increase in fluorescence was then determined over a period of 5 minutes. The slopes of the curve (dotted line) were determined by calculating trend lines.

CCC[C@@H](C=O)NC(=O)[C@H](CC(C)C)NC(=O)[C@H](CC(C)C)NC(=O)OCc1ccccc1 [Example 1, Carbobenzoxy-L-leucyl-L-leucyl-L-norvalinal] (Cbz-Leu-Leu-[Nva]-aldehyde)
MIC ([1]; Mycosarcoma maydis, read-out: MIC (minimum inhibitory concentration)): 750 µg/mL (≈ 1620 µM) | MIC ([2]; Fusarium culmorum, FUSACU, agar diffusion assay, read-out: MIC (minimum inhibitory concentration)): > 1000 µg/mL | MIC ([3]; Oculimacula yallundae, read-out: MIC (minimum inhibitory concentration)): > 1000 µg/mL | MIC ([4]; Rhizoctonia solani, read-out: MIC (minimum inhibitory concentration)): > 1000 µg/mL | MIC ([5]; Pyricularia, read-out: MIC (minimum inhibitory concentration)): 2 µg/mL (≈ 4.33 µM) | MIC ([6]; Botrytis cinerea, read-out: MIC (minimum inhibitory concentration)): 58.6 µg/mL (≈ 127 µM)

CC(C)C[C@@H](C=O)NC(=O)[C@H](CC(C)C)NC(=O)[C@H](CC(C)C)NC(=O)OCc1ccccc1 [MG-132, Z-Leu-Leu-Leu-CHO] (Cbz-Leu-Leu-Leu-aldehyde)
effect on the growth rate of yeast cells [7]: only a minimum effect, if any | relative fluorescence (proteasome activity) in presence of inhibitor [8]: markedly reduces the relative fluorescence

Aprotinin [Example 2]
MIC (minimum inhibitory concentration) [1]: 750 ppm | MIC (minimum inhibitory concentration) [2]: >1000 ppm | MIC (minimum inhibitory concentration) [3]: >1000 ppm | MIC (minimum inhibitory concentration) [4]: >1000 ppm | MIC (minimum inhibitory concentration) ([5]; PYRIOR, agar diffusion assay): 18.0 ppm | MIC (minimum inhibitory concentration) [6]: 339.3 ppm

Suc-Leu-Leu-Val-Tyr-AMC (Suc-LLVY-{AMC}; SMILES Cc1cc(=O)oc2cc(NC(=O)[C@H](Cc3ccc(O)cc3)NC(=O)[C@@H](NC(=O)[C@H](CC(C)C)NC(=O)[C@H](CC(C)C)NC(=O)CCC(=O)O)C(C)C)ccc12) [Suc-LLVY-AMC]
solubility in DMSO [9]: 50 mg/mL | Km [10]: 5 µM
